# Experimental data published in PubChem BioAssay AID1963432 (Molecular Pharmacology Branch, DTP, NCI, 2024).
# Test system: SYO-1 complex spheroid growth, percent test/control
# Experiment: Anticancer human tumor SYO-1 cell line growth inhibition [Asc];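 also: compound exposure lasted 7 days after spheroids grew 3 days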;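 as to viability, T/C: 100% = DMSO vehicle control viability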
# Conditions: for IC50: curve of first compound; for viability, T/C: stronger effect = lower value
# How it was run: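 Complex spheroids combining tumor cells with HUVEC endothelial cells and human MSCs, at 37 degrees C, 5% CO2; agents tested alone or combined, half-log dilutions from at or near clinical Cmax, or 10 microM if Cmax unknown.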
smiles,measurement,setting,value
Cc1nc(N2CCC3(CC2)COC(C)C3N)c(CO)nc1Sc1ccnc(N)c1Cl (stereo unspecified) + CCN1C(C(=O)NC23CCC(C(=O)O)(CC2)CC3)C(c2cccc(Cl)c2F)C2(C(=O)Nc3cc(Cl)ccc32)C12CCCCC2,IC50,second compound 0.00949 µM,> 3 µM
same,IC50,second compound 0.03 µM,> 3 µM
same,IC50,second compound 0.0949 µM,> 3 µM
same,IC50,second compound 0.3 µM,< 0.00949 µM
same,IC50,second compound 0.949 µM,< 0.00949 µM
same,IC50,second compound 3 µM,< 0.00949 µM
same,"viability, T/C","second compound 0.00949 µM, first compound 0.00949 µM",111%
same,"viability, T/C","second compound 0.00949 µM, first compound 0.03 µM",103%
same,"viability, T/C","second compound 0.00949 µM, first compound 0.0949 µM",112%
same,"viability, T/C","second compound 0.00949 µM, first compound 0.3 µM",109%
same,"viability, T/C","second compound 0.00949 µM, first compound 0.949 µM",116%
same,"viability, T/C","second compound 0.00949 µM, first compound 3 µM",114%
same,"viability, T/C","second compound 0.03 µM, first compound 0.00949 µM",111%
same,"viability, T/C","second compound 0.03 µM, first compound 0.03 µM",103%
same,"viability, T/C","second compound 0.03 µM, first compound 0.0949 µM",108%
same,"viability, T/C","second compound 0.03 µM, first compound 0.3 µM",99.7%
same,"viability, T/C","second compound 0.03 µM, first compound 0.949 µM",117%
same,"viability, T/C","second compound 0.03 µM, first compound 3 µM",117%
same,"viability, T/C","second compound 0.0949 µM, first compound 0.00949 µM",82.8%
same,"viability, T/C","second compound 0.0949 µM, first compound 0.03 µM",81.1%
same,"viability, T/C","second compound 0.0949 µM, first compound 0.0949 µM",86.8%
same,"viability, T/C","second compound 0.0949 µM, first compound 0.3 µM",91.2%
same,"viability, T/C","second compound 0.0949 µM, first compound 0.949 µM",96.9%
same,"viability, T/C","second compound 0.0949 µM, first compound 3 µM",83.3%
same,"viability, T/C","second compound 0.3 µM, first compound 0.00949 µM",24.3%
same,"viability, T/C","second compound 0.3 µM, first compound 0.03 µM",19.9%
same,"viability, T/C","second compound 0.3 µM, first compound 0.0949 µM",23.2%
same,"viability, T/C","second compound 0.3 µM, first compound 0.3 µM",17.4%
same,"viability, T/C","second compound 0.3 µM, first compound 0.949 µM",17.4%
same,"viability, T/C","second compound 0.3 µM, first compound 3 µM",10.9%
same,"viability, T/C","second compound 0.949 µM, first compound 0.00949 µM",3.59%
same,"viability, T/C","second compound 0.949 µM, first compound 0.03 µM",2.68%
same,"viability, T/C","second compound 0.949 µM, first compound 0.0949 µM",3.26%
same,"viability, T/C","second compound 0.949 µM, first compound 0.3 µM",1.67%
same,"viability, T/C","second compound 0.949 µM, first compound 0.949 µM",1.74%
same,"viability, T/C","second compound 0.949 µM, first compound 3 µM",0.54%
same,"viability, T/C","second compound 3 µM, first compound 0.00949 µM",0.99%
same,"viability, T/C","second compound 3 µM, first compound 0.03 µM",1.08%
same,"viability, T/C","second compound 3 µM, first compound 0.0949 µM",0.94%
same,"viability, T/C","second compound 3 µM, first compound 0.3 µM",2.3%
same,"viability, T/C","second compound 3 µM, first compound 0.949 µM",0.69%
same,"viability, T/C","second compound 3 µM, first compound 3 µM",0.39%
C#Cc1c(F)ccc2cc(O)cc(-c3ncc4c(N5CC6CCC(C5)N6)nc(OCC56CCCN5CC(F)C6)nc4c3F)c12 (stereo unspecified) + CNC(C)C(=O)NC1CN(S(=O)(=O)c2cccc(S(=O)(=O)N3CCC4CCC(C(=O)NC(c5ccccc5)c5ccccc5)N4C(=O)C(NC(=O)C(C)NC)C3)c2)CCC2CCC(C(=O)NC(c3ccccc3)c3ccccc3)N2C1=O,IC50,second compound 0.00316 µM,> 10 µM
same,IC50,second compound 0.01 µM,> 10 µM
same,IC50,second compound 0.0316 µM,> 10 µM
same,IC50,second compound 0.1 µM,> 10 µM
same,IC50,second compound 0.316 µM,> 10 µM
same,IC50,second compound 1 µM,> 10 µM
same,"viability, T/C","second compound 0.00316 µM, first compound 0.0316 µM",106%
same,"viability, T/C","second compound 0.00316 µM, first compound 0.1 µM",102%
same,"viability, T/C","second compound 0.00316 µM, first compound 0.316 µM",101%
same,"viability, T/C","second compound 0.00316 µM, first compound 1 µM",103%
same,"viability, T/C","second compound 0.00316 µM, first compound 3.16 µM",110%
same,"viability, T/C","second compound 0.00316 µM, first compound 10 µM",106%
same,"viability, T/C","second compound 0.01 µM, first compound 0.0316 µM",104%
same,"viability, T/C","second compound 0.01 µM, first compound 0.1 µM",93.3%
same,"viability, T/C","second compound 0.01 µM, first compound 0.316 µM",102%
same,"viability, T/C","second compound 0.01 µM, first compound 1 µM",108%
same,"viability, T/C","second compound 0.01 µM, first compound 3.16 µM",112%
same,"viability, T/C","second compound 0.01 µM, first compound 10 µM",105%
same,"viability, T/C","second compound 0.0316 µM, first compound 0.0316 µM",96.8%
same,"viability, T/C","second compound 0.0316 µM, first compound 0.1 µM",106%
same,"viability, T/C","second compound 0.0316 µM, first compound 0.316 µM",101%
same,"viability, T/C","second compound 0.0316 µM, first compound 1 µM",106%
same,"viability, T/C","second compound 0.0316 µM, first compound 3.16 µM",106%
same,"viability, T/C","second compound 0.0316 µM, first compound 10 µM",106%
same,"viability, T/C","second compound 0.1 µM, first compound 0.0316 µM",111%
same,"viability, T/C","second compound 0.1 µM, first compound 0.1 µM",97.5%
same,"viability, T/C","second compound 0.1 µM, first compound 0.316 µM",105%
same,"viability, T/C","second compound 0.1 µM, first compound 1 µM",111%
same,"viability, T/C","second compound 0.1 µM, first compound 3.16 µM",120%
same,"viability, T/C","second compound 0.1 µM, first compound 10 µM",99.6%
same,"viability, T/C","second compound 0.316 µM, first compound 0.0316 µM",98.7%
same,"viability, T/C","second compound 0.316 µM, first compound 0.1 µM",99.1%
same,"viability, T/C","second compound 0.316 µM, first compound 0.316 µM",108%
same,"viability, T/C","second compound 0.316 µM, first compound 1 µM",108%
same,"viability, T/C","second compound 0.316 µM, first compound 3.16 µM",116%
same,"viability, T/C","second compound 0.316 µM, first compound 10 µM",102%
same,"viability, T/C","second compound 1 µM, first compound 0.0316 µM",99.7%
same,"viability, T/C","second compound 1 µM, first compound 0.1 µM",106%
same,"viability, T/C","second compound 1 µM, first compound 0.316 µM",106%
same,"viability, T/C","second compound 1 µM, first compound 1 µM",103%
same,"viability, T/C","second compound 1 µM, first compound 3.16 µM",106%
same,"viability, T/C","second compound 1 µM, first compound 10 µM",105%
Cc1nc(N2CCC3(CC2)COC(C)C3N)c(CO)nc1Sc1ccnc(N)c1Cl (stereo unspecified) + CNC(C)C(=O)NC1CN(S(=O)(=O)c2cccc(S(=O)(=O)N3CCC4CCC(C(=O)NC(c5ccccc5)c5ccccc5)N4C(=O)C(NC(=O)C(C)NC)C3)c2)CCC2CCC(C(=O)NC(c3ccccc3)c3ccccc3)N2C1=O,IC50,second compound 0.00316 µM,> 3 µM
same,IC50,second compound 0.01 µM,> 3 µM
same,IC50,second compound 0.0316 µM,> 3 µM
same,IC50,second compound 0.1 µM,> 3 µM
same,IC50,second compound 0.316 µM,> 3 µM
same,IC50,second compound 1 µM,> 3 µM
same,"viability, T/C","second compound 0.00316 µM, first compound 0.00949 µM",107%
same,"viability, T/C","second compound 0.00316 µM, first compound 0.03 µM",105%
same,"viability, T/C","second compound 0.00316 µM, first compound 0.0949 µM",109%
same,"viability, T/C","second compound 0.00316 µM, first compound 0.3 µM",96.5%
same,"viability, T/C","second compound 0.00316 µM, first compound 0.949 µM",106%
same,"viability, T/C","second compound 0.00316 µM, first compound 3 µM",102%
same,"viability, T/C","second compound 0.01 µM, first compound 0.00949 µM",105%
same,"viability, T/C","second compound 0.01 µM, first compound 0.03 µM",95.8%
same,"viability, T/C","second compound 0.01 µM, first compound 0.0949 µM",101%
same,"viability, T/C","second compound 0.01 µM, first compound 0.3 µM",105%
same,"viability, T/C","second compound 0.01 µM, first compound 0.949 µM",110%
same,"viability, T/C","second compound 0.01 µM, first compound 3 µM",105%
same,"viability, T/C","second compound 0.0316 µM, first compound 0.00949 µM",111%
same,"viability, T/C","second compound 0.0316 µM, first compound 0.03 µM",104%
same,"viability, T/C","second compound 0.0316 µM, first compound 0.0949 µM",102%
same,"viability, T/C","second compound 0.0316 µM, first compound 0.3 µM",106%
same,"viability, T/C","second compound 0.0316 µM, first compound 0.949 µM",115%
same,"viability, T/C","second compound 0.0316 µM, first compound 3 µM",108%
same,"viability, T/C","second compound 0.1 µM, first compound 0.00949 µM",109%
same,"viability, T/C","second compound 0.1 µM, first compound 0.03 µM",103%
same,"viability, T/C","second compound 0.1 µM, first compound 0.0949 µM",104%
same,"viability, T/C","second compound 0.1 µM, first compound 0.3 µM",116%
same,"viability, T/C","second compound 0.1 µM, first compound 0.949 µM",110%
same,"viability, T/C","second compound 0.1 µM, first compound 3 µM",110%
same,"viability, T/C","second compound 0.316 µM, first compound 0.00949 µM",105%
same,"viability, T/C","second compound 0.316 µM, first compound 0.03 µM",107%
same,"viability, T/C","second compound 0.316 µM, first compound 0.0949 µM",108%
same,"viability, T/C","second compound 0.316 µM, first compound 0.3 µM",107%
same,"viability, T/C","second compound 0.316 µM, first compound 0.949 µM",119%
same,"viability, T/C","second compound 0.316 µM, first compound 3 µM",102%
same,"viability, T/C","second compound 1 µM, first compound 0.00949 µM",103%
same,"viability, T/C","second compound 1 µM, first compound 0.03 µM",109%
same,"viability, T/C","second compound 1 µM, first compound 0.0949 µM",104%
same,"viability, T/C","second compound 1 µM, first compound 0.3 µM",103%
same,"viability, T/C","second compound 1 µM, first compound 0.949 µM",115%
same,"viability, T/C","second compound 1 µM, first compound 3 µM",107%
